Measured values taken from patent publication US20060051526A1, “Process for producing cellulose acylate film” (Fuji Photo Film Co., Ltd., priority 2002, published 2006).

Experiments:
Assay type in all cases: physicochemical
[1] = Solubility test of the additive alone in dichloromethane/methanol mixed solvent (visual, after 4 days)
[2] = Measurement of micro heat of solution (multi-purpose calorimeter MPC-110); settings: for Degree of stabilization: Table 15; for Heat of solution ΔH0: solvent alone, 26.0° C.
Method: (2 Measurement of Micro Heat of Solution)
The heat of solution (dissolution enthalpy ΔH) of functional additives was measured as follows, using a multi-purpose calorimeter (MPC-110) manufactured by Tokyo Rikou as a micro heat of solution measuring instrument.
1. Solvent liquids and concentrated solutions were prepared beforehand in 1 L bottles.
2. Preparation of ampoule tubes
(1) Additives (powdered solid) were ground by a mortar and the granules were made uniform.
(2) A required amount (252 mg) of the additive to be measured was weighed into an ampoule tube for measurement of the micro heat of solution.
(3) The neck of the ampoule tube was heated sufficiently by a gas burner so as to seal the ampoule tube.
3. 50 g of the prepared solvent liquid or the concentrated solution was weighed into a measuring vessel. This amount was selected as an amount sufficient to immerse the ampoule tube in the solvent liquid when set in the measuring instrument.
4. The ampoule tube was set in the measuring instrument, which was equipped with an ampoule sealing mechanism, the measuring vessel was hermetically sealed with the ampoule sealing mechanism after confirming that the ampoule tube was immersed in the solvent liquid, it was placed in a constant temperature bath (26.0° C.), and stirring was started.
5. After confirming that the measuring instrument placed in the constant temperature bath had reached equilibrium temperature (about 8 to 12 hours) the ampoule tube was broken so as to mix the additive with the solvent liquid or the concentrated solution.
6. The total amount of heat generated was recorded.
7. The Joule's heat generated was measured by applying a known voltage to the measurement system for an appropriate time, and the recorded chart area for each measurement cell was calibrated using a known amount of heat.
8. The heat of solution of the sample was calculated from the Joule's heat and the measured sample area.
Shown in Table 11 are the solvent composition (wt %) and the solids composition (parts by weight) of the mother liquor when measuring the heat of solution, the type of retardation control agent sealed in the ampoule tube (Example Compounds I-(51) or I-(2)), and the results of measurement of the heat of solution.
The identification symbols of elements constituting the system are as follows: a denotes triacetylcellulose/plasticizer, b denotes triacetylcellulose, and c denotes plasticizer. For example, 2-87a denotes that the retardation control agent is the Example Compound I-(2), the solvent composition (wt %) is dichloromethane/methanol=87/13, and the solids constituting the system are triacetylcellulose and the plasticizer.
The heat of solution ΔH0 denotes the heat of solution (heat absorption) generated when there is no solid in the system (before breaking the ampoule tube) and the retardation control agent is dissolved in a solvent alone. […] The solids concentration of the system when saturation starts is defined as the saturation heat of solution solids concentration (wt %).
In all cases, when the solids concentration of the system is increased, the heat of solution either remains unchanged from that at a solids concentration of 0 wt % (the saturation heat of solution solids concentration is 0) or decreases and becomes saturated. […] This degree of stabilization is expressed as ΔH0−ΔHs, which is the decrease in the heat of solution.

[3] = Solubility test of the additive alone in dichloromethane/methanol mixed solvent (visual, after 4 days); settings: for Solubility S0 (solids weight concentration at the dissolution limit): CH2Cl2/CH3OH 87/13
Method: The solubility of the functional additives was measured as follows.
1. Solutions were prepared by adjusting each concentration in a 50 cc screw cap bottle.
2. Allowed to stand at room temperature for 4 days. Here, the results of the solubility changed between 1 day and 4 days in some cases, and evaluation of the solubility was carried out after 4 days as a time when equilibrium was reached.
3. Samples were prepared in the same manner at other temperatures (20° C., 35° C.), and the solubility after allowing to stand for 4 days was visually inspected.
Predetermined amounts of Example Compounds I-(51) and I-(2) were weighed into a mixed solvent of dichloromethane and methanol, and the solubility was measured by changing the mixing ratio of the organic solvents.
The solubility (solids weight concentration at the dissolution limit was calculated as (C1+C2)/2 when the concentration limit at which it could be dissolved was C1 and the concentration limit at which it could not be dissolved was C2) of the retardation control agent in a mixed solvent having an initial methylene chloride/methanol composition ratio of 87/13 was defined as S0, and the solubility of the retardation control agent when the solvent composition changed, during drying, to 74/26 where the methanol wt % was the maximum was defined as S1. The temperature at which the solubility was measured is denoted by the figure in brackets.

[4] = 87/13, solids b: triacetylcellulose only
[5] = 87/13, solids c: plasticizer only

- Solubility in dichloromethane/methanol mixed solvent (in words) ([1]; 20° C. and 35° C.): excellent
- Difference S0 − S1 ([1]; 20° C., 87/13 vs 74/26): 10 wt %
- Difference S0 − S1 ([1]; 20° C., 92/8 vs 91/9): 0 wt %
- Ratio S1/S0 ([1]; 20° C., 92/8 vs 91/9): 1.000
- Solubility S1 (solids weight concentration at the dissolution limit) ([1]; 20° C., CH2Cl2/CH3OH 74/26): 17.5 wt %
- Solubility S1 (solids weight concentration at the dissolution limit) ([1]; 20° C., CH2Cl2/CH3OH 91/9): 32.5 wt %
- Solubility S0 (solids weight concentration at the dissolution limit) ([1]; 20° C., CH2Cl2/CH3OH 92/8): 32.5 wt %
- Difference S0 − S1 ([1]; 25° C., 87/13 vs 74/26): 10 wt %
- Difference S0 − S1 ([1]; 25° C., 92/8 vs 91/9): 0 wt %
- Ratio S1/S0 ([1]; 25° C., 92/8 vs 91/9): 1.000
- Solubility S1 (solids weight concentration at the dissolution limit) ([1]; 25° C., CH2Cl2/CH3OH 74/26): 17.5 wt %
- Solubility S0 (solids weight concentration at the dissolution limit) ([1]; 25° C., CH2Cl2/CH3OH 87/13): 27.5 wt %
- Solubility S1 (solids weight concentration at the dissolution limit) ([1]; 25° C., CH2Cl2/CH3OH 91/9): 32.5 wt %
- Solubility S0 (solids weight concentration at the dissolution limit) ([1]; 25° C., CH2Cl2/CH3OH 92/8): 32.5 wt %
- Difference S0 − S1 ([1]; 35° C., 92/8 vs 91/9): 0 wt %
- Ratio S1/S0 ([1]; 35° C., 92/8 vs 91/9): 1.000
- Solubility S1 (solids weight concentration at the dissolution limit) ([1]; 35° C., CH2Cl2/CH3OH 91/9): 32.5 wt %
- Solubility S0 (solids weight concentration at the dissolution limit) ([1]; 35° C., CH2Cl2/CH3OH 92/8): 32.5 wt %
- Degree of stabilization (ΔH0 − ΔHs) ([2]; 50/50, solids a): 0 kJ/mol
- Saturation heat of solution solids concentration ([2]; 50/50, solids a): 0 wt %
- Heat of solution ΔHs ([2]; 50/50, solids a: triacetylcellulose/plasticizer): 25.8 kJ/mol
- Degree of stabilization (ΔH0 − ΔHs) ([2]; 74/26, solids a): 0 kJ/mol
- Saturation heat of solution solids concentration ([2]; 74/26, solids a): 0 wt %
- Heat of solution ΔHs ([2]; 74/26, solids a: triacetylcellulose/plasticizer): 29.2 kJ/mol
- Degree of stabilization (ΔH0 − ΔHs) ([2]; 87/13, solids a: triacetylcellulose/plasticizer): 5.86 kJ/mol
- Heat of solution ΔHs ([2]; 87/13, solids a: triacetylcellulose/plasticizer (TPP/BDP)): 25.5 kJ/mol
- Degree of stabilization (ΔH0 − ΔHs) [2, 4]: 8.4 kJ/mol
- Heat of solution ΔHs [2, 4]: 23 kJ/mol
- Degree of stabilization (ΔH0 − ΔHs) [2, 5]: 4.6 kJ/mol
- Heat of solution ΔHs [2, 5]: 26.8 kJ/mol
- Degree of stabilization (ΔH0 − ΔHs) ([2]; 92/8, solids a): 5.77 kJ/mol
- Saturation heat of solution solids concentration ([2]; 92/8, solids a): 7 wt %
- Heat of solution ΔHs ([2]; 92/8, solids a: triacetylcellulose/plasticizer): 24.4 kJ/mol
- Degree of stabilization (ΔH0 − ΔHs) ([2]; 100/0, solids a): 5.65 kJ/mol
- Saturation heat of solution solids concentration ([2]; 100/0, solids a): 10 wt %
- Heat of solution ΔHs ([2]; 100/0, solids a: triacetylcellulose/plasticizer): 22.1 kJ/mol
- Degree of stabilization ([2]; dope Table 12, solvent composition 87/13): 5.86 kJ/mol
- Degree of stabilization ([2]; dope Table 13, solvent composition 92/8): 5.77 kJ/mol
- Degree of stabilization ([2]; dope Table 14, solvent composition 74/26): 0 kJ/mol
- Stabilization by solids in the system (in words) ([2]; case c: only the plasticizer present in the system): is stabilized
- Heat of solution ΔH0 ([2]; dichloromethane/methanol 50/50 wt %): 25.8 kJ/mol
- Heat of solution ΔH0 ([2]; dichloromethane/methanol 74/26 wt %): 29.2 kJ/mol
- Heat of solution ΔH0 ([2]; dichloromethane/methanol 87/13 wt %): 31.4 kJ/mol
- Heat of solution ΔH0 ([2]; dichloromethane/methanol 92/8 wt %): 30.2 kJ/mol
- Heat of solution ΔH0 ([2]; dichloromethane/methanol 100/0 wt %): 27.8 kJ/mol
- Ratio S1/S0 ([3]; 20° C., 87/13 vs 74/26): 0.636
- Solubility S0 (solids weight concentration at the dissolution limit) ([3]; 20° C.): 27.5 wt %
- Ratio S1/S0 ([3]; 25° C., 87/13 vs 74/26): 0.636
- Difference S0 − S1 ([3]; 35° C., 87/13 vs 74/26): 10 wt %
- Ratio S1/S0 ([3]; 35° C., 87/13 vs 74/26): 0.692
- Solubility S1 (solids weight concentration at the dissolution limit) ([3]; 35° C., CH2Cl2/CH3OH 74/26): 22.5 wt %
- Solubility S0 (solids weight concentration at the dissolution limit) ([3]; 35° C.): 32.5 wt %
SMILES: COc1ccc(Nc2nc(Nc3cccc(C)c3)nc(Nc3cccc(C)c3)n2)cc1 [Example Compound I-(2)]
